Measured values from publication PMC8041284, “Tunable Methacrylamides for Covalent Ligand Directed Release Chemistry” (Journal of the American Chemical Society, 2021).

Target: BTK (Homo sapiens, UniProt Q06187)
Experiment: biochemical
Settings: read-out: BTK inhibition (%), 0.75 uM BTK, […] probe 3l, 15 min preincubation

BTK, sequence (Q06187 402-655 limits assumed): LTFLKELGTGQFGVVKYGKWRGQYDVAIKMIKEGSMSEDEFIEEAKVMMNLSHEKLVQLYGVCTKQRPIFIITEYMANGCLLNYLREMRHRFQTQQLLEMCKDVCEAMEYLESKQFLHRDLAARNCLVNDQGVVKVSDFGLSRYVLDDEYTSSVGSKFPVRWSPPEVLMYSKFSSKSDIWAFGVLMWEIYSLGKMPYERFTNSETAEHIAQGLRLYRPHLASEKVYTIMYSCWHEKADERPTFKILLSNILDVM

| inhibition at 10 µM [%] | SMILES |
| --- | --- |
| -13.1 | COc1ccc2cc([C@H](C)C(=O)O)ccc2c1 [PCM-0000233] |
| 10.9 | c1coc(CNc2ncnc3nc[nH]c23)c1 [PCM-0000462] |
| -65.4 | COc1ccc(Cl)cc1C(=O)NCCc1ccc(S(=O)(=O)NC(=O)NC2CCCCC2)cc1 [PCM-0003840] |
| -3.1 | O=C(Oc1cc(S(=O)(=O)c2ccccc2)ccc1[N+](=O)[O-])c1ccc(Cl)cc1 [PCM-0004196] |
| -22.6 | C=C[C@H]1CN2CC[C@H]1C[C@H]2[C@H](O)c1ccnc2ccc(OC)cc12 [PCM-0004959] |
| -6.2 | Cc1c(Cl)cccc1Nc1ccccc1C(=O)O [PCM-0005612] |
| 6.2 | CC1=NN(c2ccccc2)C(=O)C1 [PCM-0006147] |
| -14 | O=C(/C=C/C=C/c1ccc2c(c1)OCO2)N1CCCCC1 [PCM-0006645] |
| 16.6 | O=C(NCCS(=O)(=O)c1ccc(C(F)(F)F)cn1)c1ccc(Cl)cc1 [PCM-0007384] |
| 4.7 | Cc1cccc(N(C)C(=S)Oc2ccc3ccccc3c2)c1 [PCM-0007505] |
| -3.1 | CC1=CC(=O)c2ccccc2C1=O [PCM-0009823] |
| -3.9 | O=C(Nc1ccccc1)N1CCN(c2nc(-c3ccccc3)ns2)CC1 [PCM-0010620] |
| -2.3 | Cc1cc(=O)oc2cc(O)ccc12 [PCM-0011565] |
| 21.4 | COc1cc2ncnc(Nc3cccc(Cl)c3)c2cc1OC [PCM-0012125] |
| 18.6 | O=C1c2ccccc2-c2n[nH]c3cccc1c23 [PCM-0012406] |
| 3.1 | CC(N)C12CC3CC(CC(C3)C1)C2 (centres unmarked) [PCM-0012697] |
| 5.4 | CCn1cc(C(=O)O)c(=O)c2ccc(C)nc21 [PCM-0012961] |
| 5.5 | CC(=O)N[C@@H](CS)C(=O)O [PCM-0064400] |
| -2.3 | NCCCCCC(=O)O [PCM-0064402] |
| 15.9 | CN(C)c1nc(N(C)C)nc(N(C)C)n1 [PCM-0064404] |
| -14.8 | NC12CC3CC(CC(C3)C1)C2 [PCM-0064405] |
| -6.2 | CCCCNc1cc(C(=O)O)cc(S(N)(=O)=O)c1Oc1ccccc1 [PCM-0064421] |
| -3.9 | CC(NC(C)(C)C)C(=O)c1cccc(Cl)c1 (centres unmarked) [PCM-0064429] |

| inhibition at 10 µM [%] | SMILES |
| --- | --- |
| -9.3 | CN1CCC(=C2c3ccccc3C=Cc3ccccc32)CC1 [PCM-0064430] |
| -14 | CC(C)(Oc1ccc(C2CC2(Cl)Cl)cc1)C(=O)O (centres unmarked) [PCM-0064433] |
| -16.3 | CN(C)CCCN1c2ccccc2Sc2ccc(Cl)cc21 [PCM-0064436] |
| -24.9 | Cn1c(=O)c2[nH]cnc2n(C)c1=O [PCM-0064445] |
| -23.3 | CC(=O)NC[C@H]1CN(c2ccc(N3CCOCC3)c(F)c2)C(=O)O1 [PCM-0064450] |
| 19.5 | Clc1ccc(C(c2ccccc2Cl)C(Cl)Cl)cc1 (centres unmarked) [PCM-0064460] |
| -11.9 | N[C@@H]1CONC1=O [PCM-0064462] |
| 18.6 | Oc1ccc(-c2nc(-c3ccc(F)cc3)c(-c3ccncc3)[nH]2)cc1 [PCM-0064463] |
| -10.1 | NS(=O)(=O)c1cc2c(cc1Cl)NC=NS2(=O)=O [PCM-0064466] |
| -14.8 | CN(C)CCCC1(c2ccc(F)cc2)OCc2cc(C#N)ccc21 (centres unmarked) [PCM-0064474] |
| -6.2 | CN(C)CCC[C@@]1(c2ccc(F)cc2)OCc2cc(C#N)ccc21 [PCM-0064474] |
| 18.7 | O=c1[nH]cnc2[nH]ncc12 [PCM-0064482] |
| -5.5 | Oc1ncnc2[nH]ncc12 [PCM-0064482] |
| -4.8 | Cn1cnc([N+](=O)[O-])c1Sc1ncnc2nc[nH]c12 [PCM-0064491] |
| 6.9 | CN(C)CCC(c1ccc(Cl)cc1)c1ccccn1 (centres unmarked) [PCM-0064500] |
| -19.5 | Clc1cccc(Cl)c1NC1=NCCN1 [PCM-0064514] |
| -6.2 | Nc1ncn([C@@H]2O[C@H](CO)[C@@H](O)[C@H]2O)c(=O)n1 [PCM-0064526] |
| -4.7 | COc1ccc(C(=O)N2CCCC2=O)cc1 [PCM-0064527] |
| -7.8 | Nc1c2c(nc3ccccc13)CCCC2 [PCM-0064528] |
| -15.6 | Nc1nc2c(ncn2COCCO)c(=O)[nH]1 [PCM-0064530] |
| 21 | CC(C)NCC(O)COc1ccc(CCOCC2CC2)cc1 (centres unmarked) [PCM-0064542] |
| 75.5 | CCCCc1oc2ccccc2c1C(=O)c1cc(I)c(OCCN(CC)CC)c(I)c1 [PCM-0064561] |
| -3.9 | NC(=O)c1cccc(N)c1 [PCM-0064562] |

| inhibition at 10 µM [%] | SMILES |
| --- | --- |
| -3.4 | CCC1(c2ccc(N)cc2)CCC(=O)NC1=O (centres unmarked) [PCM-0064565] |
| 46.2 | CCc1ccc(/C=C2/SC(=S)NC2=O)cc1 [PCM-0064568] |
| -31.5 | c1cnc2cc3c(cc2n1)[C@@H]1CNC[C@H]3C1 [PCM-0064570] |
| -19.3 | CN(C)CCC(c1ccc(Br)cc1)c1ccccn1 (centres unmarked) [PCM-0064576] |
| -3.1 | COc1ccccc1N1CCN(CCN2C(=O)CC3(CCCC3)CC2=O)CC1 [PCM-0064586] |
| -21.8 | O=C(O)/C=C/c1ccc(O)c(O)c1 [PCM-0064590] |
| 9.3 | NC(=O)N1c2ccccc2C=Cc2ccccc21 [PCM-0064618] |
| -19.5 | O=C1CCc2cc(OCCCCc3nnnn3C3CCCCC3)ccc2N1 [PCM-0064629] |
| 37.4 | Oc1cc(O)c2c(c1)O[C@H](c1ccc(O)c(O)c1)[C@@H](O)C2 [PCM-0064631] |
| 63.8 | O=c1cc(-c2ccc(O)cc2)oc2cc(O)cc(O)c12 [PCM-0064643] |
| -2.3 | C[C@H](CS)C(=O)N1CCC[C@H]1C(=O)O [PCM-0064658] |
| 1.6 | COc1cc2nc(N(C)CCCNC(=O)C3CCCO3)nc(N)c2cc1OC (centres unmarked) [PCM-0064661] |
| -7 | CC(C[N+](C)(C)C)OC(N)=O (centres unmarked) [PCM-0064662] |
| 10.1 | CC(C)c1c(C(=O)Nc2ccccc2)c(-c2ccccc2)c(-c2ccc(F)cc2)n1CC[C@@H](O)C[C@@H](O)CC(=O)O [PCM-0064680] |
| -17 | NC(N)=NCCCC(N)C(=O)O (centres unmarked) [PCM-0064685] |
| 82.8 | O=C1NC(=O)/C(=C/c2ccc(-c3ccc(F)cc3O)o2)S1 [PCM-0064686] |
| -14 | NC(CO)C(=O)NNCc1ccc(O)c(O)c1O (centres unmarked) [PCM-0064697] |
| -2.3 | Clc1ccccc1C(c1ccccc1)(c1ccccc1)n1ccnc1 [PCM-0064702] |
| 7 | Cc1cc(Cl)ccc1OCCCC(=O)NO [PCM-0064710] |
| 38.6 | CC#C[C@]1(O)CC[C@H]2[C@@H]3CCC4=CC(=O)CCC4=C3[C@@H](c3ccc(N(C)C)cc3)C[C@@]21C [PCM-0064713] |
| -28 | CCOC(=O)C1=C(C)NC(C)=C(C(=O)OC)C1c1cccc([N+](=O)[O-])c1 (centres unmarked) [PCM-0064714] |
| 47.5 | COC(=O)C1=C(C)NC(C)=C(C(=O)OCCN(C)Cc2ccccc2)C1c1cccc([N+](=O)[O-])c1 (centres unmarked) [PCM-0064729] |

| SMILES | inhibition at 10 µM [%] |
| --- | --- |
| CN(C)CCC=C1c2ccccc2CCc2ccccc21 [PCM-0064521] | -22.6 |
| CN1CCN(C2=Nc3cc(Cl)ccc3Nc3ccccc32)CC1 [PCM-0064549] | 4.7 |
| O=C(O)/C=C/C(=O)O [PCM-0064603] | -7.7 |
